Measured values taken from ChEMBL document CHEMBL1156097, “Design, synthesis and bioevaluation of novel maleamic amino acid ester conjugates of 3,5-bisarylmethylene-4-piperidones as cytostatic agents” (Bioorg Med Chem Lett, 2009).
Active and inactive are the calls of the source. The rule behind the calls is not given here.

Experiments:
[1] = Cytotoxicity against human Molt4/C8 cells; format: functional, cell-based; conditions: MOLT-4
CCRF-CEM = experiment: Cytotoxicity against human CEM cells; format: functional, cell-based
[2] = target: DNA topoisomerase 2-alpha (Homo sapiens) (UniProt P11388); experiment: Inhibition of human DNA topoisomerase 2alpha-mediated relaxation of supercoiled pRYG DNA at 25 uM after 30 mins by […]
[3] = target: DNA topoisomerase 2-alpha (Homo sapiens) (UniProt P11388); experiment: Inhibition of human DNA topoisomerase 2alpha-mediated relaxation of supercoiled pRYG DNA at 100 uM after 30 mins by agarose gel electrophoresis
[4] = target: DNA topoisomerase 2-alpha (Homo sapiens) (UniProt P11388); experiment: Inhibition of human DNA topoisomerase 2alpha-mediated relaxation of supercoiled pRYG DNA at 10 uM after 30 mins by […]
L1210 = experiment: Cytotoxicity against mouse L1210 cells; format: functional, cell-based
[5] = target: DNA topoisomerase 2-alpha (Homo sapiens) (UniProt P11388); experiment: Inhibition of human DNA topoisomerase 2alpha-mediated relaxation of supercoiled pRYG DNA at 50 uM after 30 mins by […]
Mus musculus [6] = experiment: Neurotoxicity in mouse at 100 mg/kg, ip after 0.5 hrs; format: toxicity, organism-based; design: dose 100 mg/kg, route intraperitoneal; conditions: in vivo
Mus musculus [7] = experiment: Neurotoxicity in mouse at 30 mg/kg, ip after 4 hrs; format: toxicity, organism-based; design: dose 30 mg/kg, route intraperitoneal; conditions: in vivo
Mus musculus [8] = experiment: Neurotoxicity in mouse at 300 mg/kg, ip after 4 hrs; format: toxicity, organism-based; design: dose 300 mg/kg, route intraperitoneal; conditions: in vivo
Mus musculus [9] = experiment: Neurotoxicity in mouse at 300 mg/kg, ip after 0.5 hrs; format: toxicity, organism-based; design: dose 300 mg/kg, route intraperitoneal; conditions: in vivo
Mus musculus [10] = experiment: Neurotoxicity in mouse at 100 mg/kg, ip after 4 hrs; format: toxicity, organism-based; design: dose 100 mg/kg, route intraperitoneal; conditions: in vivo

Sequence of DNA topoisomerase 2-alpha (Homo sapiens) (P11388 whole entry): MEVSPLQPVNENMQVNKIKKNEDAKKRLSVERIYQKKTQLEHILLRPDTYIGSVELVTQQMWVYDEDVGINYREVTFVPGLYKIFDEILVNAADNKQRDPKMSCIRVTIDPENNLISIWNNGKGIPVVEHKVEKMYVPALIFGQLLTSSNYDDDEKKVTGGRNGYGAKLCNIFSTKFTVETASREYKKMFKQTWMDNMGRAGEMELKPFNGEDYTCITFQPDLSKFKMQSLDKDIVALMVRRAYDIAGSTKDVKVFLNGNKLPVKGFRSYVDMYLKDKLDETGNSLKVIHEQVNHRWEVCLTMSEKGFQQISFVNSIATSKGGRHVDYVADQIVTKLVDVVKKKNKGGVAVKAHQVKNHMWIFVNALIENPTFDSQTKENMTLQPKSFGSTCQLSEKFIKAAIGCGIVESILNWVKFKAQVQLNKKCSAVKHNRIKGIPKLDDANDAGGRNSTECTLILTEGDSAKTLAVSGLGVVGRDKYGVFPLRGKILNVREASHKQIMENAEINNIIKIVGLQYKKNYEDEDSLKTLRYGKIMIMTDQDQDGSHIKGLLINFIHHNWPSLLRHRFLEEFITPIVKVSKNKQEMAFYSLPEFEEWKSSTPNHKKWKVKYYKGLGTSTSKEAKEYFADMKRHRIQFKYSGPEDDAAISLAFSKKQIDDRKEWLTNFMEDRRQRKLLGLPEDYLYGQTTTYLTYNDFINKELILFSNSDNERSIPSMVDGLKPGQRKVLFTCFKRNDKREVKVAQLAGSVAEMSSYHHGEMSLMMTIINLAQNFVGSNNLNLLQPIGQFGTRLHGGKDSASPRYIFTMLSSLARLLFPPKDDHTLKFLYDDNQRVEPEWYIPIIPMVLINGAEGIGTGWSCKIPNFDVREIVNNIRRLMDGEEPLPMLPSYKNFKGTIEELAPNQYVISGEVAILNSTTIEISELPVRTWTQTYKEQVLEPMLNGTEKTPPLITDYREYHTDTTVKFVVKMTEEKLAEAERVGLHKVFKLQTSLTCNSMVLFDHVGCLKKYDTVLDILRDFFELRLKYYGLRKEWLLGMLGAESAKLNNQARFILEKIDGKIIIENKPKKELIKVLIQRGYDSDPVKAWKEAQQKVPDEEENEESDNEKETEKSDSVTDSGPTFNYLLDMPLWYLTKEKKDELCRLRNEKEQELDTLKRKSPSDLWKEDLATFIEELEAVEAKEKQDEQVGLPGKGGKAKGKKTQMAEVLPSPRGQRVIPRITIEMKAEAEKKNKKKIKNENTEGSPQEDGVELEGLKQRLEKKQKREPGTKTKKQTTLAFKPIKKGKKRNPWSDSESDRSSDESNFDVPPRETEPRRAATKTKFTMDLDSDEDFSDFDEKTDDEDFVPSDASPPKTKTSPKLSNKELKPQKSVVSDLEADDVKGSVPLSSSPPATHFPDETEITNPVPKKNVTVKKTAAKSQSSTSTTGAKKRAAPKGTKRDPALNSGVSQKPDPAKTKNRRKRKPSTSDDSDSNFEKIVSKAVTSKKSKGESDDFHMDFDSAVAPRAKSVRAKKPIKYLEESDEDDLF

Row | Structure (SMILES) | IC50 [1] [nM] | IC50 (CCRF-CEM) [nM] | Activity [2] | Activity [3] | Activity [4] | IC50 (L1210) [nM] | Activity [5] | Activity (Mus musculus [6]) | Activity (Mus musculus [7]) | Activity (Mus musculus [8]) | Activity (Mus musculus [9]) | Activity (Mus musculus [10])
1 | C=CC(=O)N1C/C(=C\c2ccccc2)C(=O)/C(=C/c2ccccc2)C1 | 1420 | – | – | – | – | – | – | – | – | – | – | –
2 | CCOC(=O)[C@H](Cc1ccc(O)cc1)NC(=O)/C=C\C(=O)N1C/C(=C\c2ccccc2)C(=O)/C(=C/c2ccccc2)C1 | 570 | 350 | inactive | Active | inactive | 4600 | inactive | – | – | – | – | –
3 | CCOC(=O)CNC(=O)/C=C\C(=O)N1C/C(=C\c2ccccc2)C(=O)/C(=C/c2ccccc2)C1 | 1400 | 1300 | inactive | inactive | inactive | 6100 | inactive | – | – | – | – | –
4 | CCOC(=O)[C@@H](NC(=O)/C=C\C(=O)N1C/C(=C\c2ccc([N+](=O)[O-])cc2)C(=O)/C(=C/c2ccc([N+](=O)[O-])cc2)C1)C(C)C | 220 | 170 | Active | Active | inactive | 440 | Active | – | – | – | – | –
5 | C=CC(=O)N1C/C(=C\c2ccc([N+](=O)[O-])cc2)C(=O)/C(=C/c2ccc([N+](=O)[O-])cc2)C1 | 150 | – | – | – | – | – | – | – | – | – | – | –
6 | CCOC(=O)[C@H](Cc1ccc(O)cc1)NC(=O)/C=C\C(=O)N1C/C(=C\c2ccc([N+](=O)[O-])cc2)C(=O)/C(=C/c2ccc([N+](=O)[O-])cc2)C1 | 280 | 170 | Active | Active | inactive | 600 | Active | – | – | – | – | –
7 | O=C1/C(=C/c2ccc([N+](=O)[O-])cc2)CNC/C1=C\c1ccc([N+](=O)[O-])cc1 | 8280 | – | – | – | – | 32100 | – | – | – | – | – | –
8 | CCOC(=O)[C@H](CC(C)C)NC(=O)/C=C\C(=O)N1C/C(=C\c2ccc([N+](=O)[O-])cc2)C(=O)/C(=C/c2ccc([N+](=O)[O-])cc2)C1 | 210 | 170 | inactive | Active | inactive | 240 | inactive | Non-toxic | – | – | – | –
9 | CCOC(=O)[C@H](Cc1ccccc1)NC(=O)/C=C\C(=O)N1C/C(=C\c2ccc([N+](=O)[O-])cc2)C(=O)/C(=C/c2ccc([N+](=O)[O-])cc2)C1 | 240 | 130 | Active | Active | Active | 200 | Active | – | – | – | – | –
10 | CCOC(=O)[C@H](C)NC(=O)/C=C\C(=O)N1C/C(=C\c2ccc([N+](=O)[O-])cc2)C(=O)/C(=C/c2ccc([N+](=O)[O-])cc2)C1 | 240 | 83 | inactive | Active | inactive | 580 | Active | – | – | – | – | –
11 | CCOC(=O)[C@H](CCSC)NC(=O)/C=C\C(=O)N1C/C(=C\c2ccc([N+](=O)[O-])cc2)C(=O)/C(=C/c2ccc([N+](=O)[O-])cc2)C1 | 250 | 190 | Active | Active | Active | 580 | Active | – | – | – | – | –
12 | CCOC(=O)CNC(=O)/C=C\C(=O)N1C/C(=C\c2ccc([N+](=O)[O-])cc2)C(=O)/C(=C/c2ccc([N+](=O)[O-])cc2)C1 | 230 | 110 | Active | Active | Active | 840 | Active | – | Non-toxic | Non-toxic | Non-toxic | Non-toxic
13 | CCOC(=O)[C@H](CC(C)C)NC(=O)/C=C\C(=O)N1C/C(=C\c2ccccc2)C(=O)/C(=C/c2ccccc2)C1 | 1100 | 1200 | inactive | inactive | inactive | 4700 | inactive | – | – | – | – | –
14 | CCOC(=O)[C@H](Cc1c[nH]c2ccccc12)NC(=O)/C=C\C(=O)N1C/C(=C\c2ccc([N+](=O)[O-])cc2)C(=O)/C(=C/c2ccc([N+](=O)[O-])cc2)C1 | 270 | 190 | Active | Active | Active | 620 | Active | – | – | – | – | –
